Experimental data from ChEMBL document CHEMBL1201862, “PubChem BioAssay data set” (2004).
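Where inhibition never reached the appropriate level, the endpoint shown equals the highest concentration tested. Otherwise, values were interpolated linearly from a five-concentration, 48-hour dose response in 96-well plates. GI50 = concentration required for 50% inhibition of growth.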 Active and inactive are the calls of the source. Rule as the data show it: active = GI50 up to about 1.1 µM and inactive = higher.

What was measured:
Assay in all cases: NCI anticancer screen, dose series, 48 h
HCC 2998 = tested on: HCC 2998
SW-620 = tested on: SW-620
HT-29 = tested on: HT-29
CAKI-1 = tested on: CAKI-1
ACHN = tested on: ACHN
UACC-62 = tested on: UACC-62
786-0 = tested on: 786-0
HOP-62 = tested on: HOP-62
SR = tested on: SR
M14 = tested on: M14
TK-10 = tested on: TK-10
MOLT-4 = tested on: MOLT-4
SNB-19 = tested on: SNB-19
UACC-257 = tested on: UACC-257
OVCAR-5 = tested on: OVCAR-5
NCI-H522 = tested on: NCI-H522
U-251 = tested on: U-251

SMILES	GI50 (HCC 2998)	GI50 (SW-620)	GI50 (HT-29)	GI50 (CAKI-1)	GI50 (ACHN)	GI50 (UACC-62)	GI50 (786-0)	GI50 (HOP-62)	GI50 (SR)	GI50 (M14)	GI50 (TK-10)	GI50 (MOLT-4)	GI50 (SNB-19)	GI50 (UACC-257)	GI50 (OVCAR-5)	GI50 (NCI-H522)	GI50 (U-251)
CC(C)=C1CCC(CN2CCCC2)C1=O (centres undefined)	20.3 µM (inactive)	22.1 µM (inactive)	22.8 µM (inactive)	13.7 µM (inactive)	18.6 µM (inactive)	> 100 µM (inactive)	16.9 µM (inactive)	> 100 µM (inactive)	15.8 µM (inactive)	19.2 µM (inactive)	27.5 µM (inactive)	21.9 µM (inactive)	> 100 µM (inactive)	24.7 µM (inactive)	94.6 µM (inactive)		
CC1=C(C(=O)Nc2ccccc2C)C(/C=C/c2ccccc2)C(C(=O)Nc2ccccc2C)=C(C)N1	> 100 µM (inactive)	> 100 µM (inactive)	> 100 µM (inactive)	> 100 µM (inactive)	> 100 µM (inactive)	> 100 µM (inactive)	> 100 µM (inactive)	> 100 µM (inactive)		> 100 µM (inactive)	> 100 µM (inactive)		> 100 µM (inactive)	> 100 µM (inactive)	> 100 µM (inactive)	67.1 µM (inactive)	85.1 µM (inactive)
C[C@H](C(=O)C12CC3CC(CC(C3)C1)C2)[C@H](O)c1ccccc1		47.9 µM (inactive)	18.7 µM (inactive)	36 µM (inactive)	33.8 µM (inactive)	28.4 µM (inactive)	22.8 µM (inactive)		29.4 µM (inactive)	29.6 µM (inactive)	36.1 µM (inactive)	23.9 µM (inactive)	61.1 µM (inactive)	29.9 µM (inactive)	17.5 µM (inactive)	22 µM (inactive)	
CCOC(=O)C1S/C(=N\c2ccc(OC)c(OC)c2)N=C1C (centres undefined)	51.9 µM (inactive)	42.7 µM (inactive)	18.8 µM (inactive)	39.3 µM (inactive)	33.6 µM (inactive)	26.3 µM (inactive)	29.2 µM (inactive)	92 µM (inactive)		46.7 µM (inactive)	75.9 µM (inactive)		53.5 µM (inactive)	41.7 µM (inactive)	40.2 µM (inactive)	17 µM (inactive)	36.2 µM (inactive)
CC[P+](C)(C)CC	> 100 µM (inactive)	> 100 µM (inactive)	> 100 µM (inactive)		> 100 µM (inactive)	> 100 µM (inactive)	> 100 µM (inactive)	> 100 µM (inactive)	> 100 µM (inactive)	> 100 µM (inactive)	> 100 µM (inactive)	> 100 µM (inactive)	> 100 µM (inactive)	> 100 µM (inactive)	> 100 µM (inactive)		> 100 µM (inactive)
CC12CC(Sc3ccccc3N1)c1ccccc1O2 (centres undefined)	17.1 µM (inactive)	17.7 µM (inactive)	19.7 µM (inactive)	19.2 µM (inactive)	16.9 µM (inactive)	17 µM (inactive)	17.7 µM (inactive)	19.6 µM (inactive)	13.6 µM (inactive)	18.3 µM (inactive)	28.9 µM (inactive)	16.6 µM (inactive)	15.2 µM (inactive)	14.5 µM (inactive)	19 µM (inactive)		13.2 µM (inactive)
O=C1Nc2ccccc2C12CCCC2	> 100 µM (inactive)	> 100 µM (inactive)	> 100 µM (inactive)	> 100 µM (inactive)	> 100 µM (inactive)	> 100 µM (inactive)	> 100 µM (inactive)	> 100 µM (inactive)		> 100 µM (inactive)	> 100 µM (inactive)	> 100 µM (inactive)	> 100 µM (inactive)	> 100 µM (inactive)		> 100 µM (inactive)	> 100 µM (inactive)
COc1c(C)c2c(c(C)c1Cl)Oc1c(C=O)c(O)c(Cl)c(C)c1C(=O)O2	28.1 µM (inactive)	43.8 µM (inactive)	36.9 µM (inactive)	40.7 µM (inactive)	22.4 µM (inactive)	21.6 µM (inactive)	31 µM (inactive)	24.3 µM (inactive)	27.5 µM (inactive)	20.9 µM (inactive)	31.8 µM (inactive)	20.6 µM (inactive)		31.4 µM (inactive)	28.1 µM (inactive)	22.7 µM (inactive)	20.3 µM (inactive)
Cc1cn(C2CC(O)C(CO)O2)c(=O)n2nnnc12 (centres undefined)	> 100 µM (inactive)	> 100 µM (inactive)	> 100 µM (inactive)			> 100 µM (inactive)	> 100 µM (inactive)	> 100 µM (inactive)	> 100 µM (inactive)	> 100 µM (inactive)	> 100 µM (inactive)	> 100 µM (inactive)	> 100 µM (inactive)	> 100 µM (inactive)	> 100 µM (inactive)	> 100 µM (inactive)	> 100 µM (inactive)
Cn1c2c(c3ccccc31)CCN(CCCCN1CCc3c(n(C)c4ccccc34)C1=O)C2		> 100 µM (inactive)	> 100 µM (inactive)	> 100 µM (inactive)	> 100 µM (inactive)	> 100 µM (inactive)	> 100 µM (inactive)	> 100 µM (inactive)		> 100 µM (inactive)	> 100 µM (inactive)	> 100 µM (inactive)	> 100 µM (inactive)	> 100 µM (inactive)	> 100 µM (inactive)	> 100 µM (inactive)	> 100 µM (inactive)
CN1CCN2c3ccccc3CC(C#N)(C#N)C2C1 (centres undefined)	> 100 µM (inactive)	> 100 µM (inactive)	> 100 µM (inactive)	> 100 µM (inactive)	> 100 µM (inactive)	> 100 µM (inactive)	> 100 µM (inactive)			> 100 µM (inactive)	> 100 µM (inactive)	> 100 µM (inactive)	> 100 µM (inactive)	> 100 µM (inactive)	> 100 µM (inactive)	> 100 µM (inactive)	> 100 µM (inactive)
CC(=O)Nc1ccc(-c2nnc(SCC(=O)Nc3ccccc3Cl)o2)cc1	> 100 µM (inactive)	> 100 µM (inactive)	80.4 µM (inactive)	> 100 µM (inactive)	> 100 µM (inactive)		> 100 µM (inactive)	> 100 µM (inactive)		> 100 µM (inactive)	> 100 µM (inactive)	> 100 µM (inactive)	> 100 µM (inactive)	> 100 µM (inactive)	> 100 µM (inactive)	> 100 µM (inactive)	> 100 µM (inactive)
COc1ccc2nccc(C3OC(=O)N4CCC(=O)CC34)c2c1 (centres undefined)		> 100 µM (inactive)	> 100 µM (inactive)	> 100 µM (inactive)	> 100 µM (inactive)	> 100 µM (inactive)	> 100 µM (inactive)	> 100 µM (inactive)	> 100 µM (inactive)	> 100 µM (inactive)	> 100 µM (inactive)	> 100 µM (inactive)	> 100 µM (inactive)	> 100 µM (inactive)	> 100 µM (inactive)	6.84 µM (inactive)	> 100 µM (inactive)
O=C1/C=C(/c2ccc(O)cc2)[C@@H](OC2OC(CO)C(O)C(O)C2O)Cc2ccc(O)cc2O1.O=C1/C=C(/c2ccc(O)cc2)[C@H](O)Cc2ccc(O[C@@H]3OC(CO)C(O)C(O)C3O)cc2O1 (some centres undefined)		> 100 µM (inactive)	> 100 µM (inactive)	> 100 µM (inactive)	> 100 µM (inactive)	> 100 µM (inactive)	> 100 µM (inactive)	> 100 µM (inactive)	1 µM (active)	> 100 µM (inactive)	> 100 µM (inactive)		> 100 µM (inactive)	> 100 µM (inactive)	> 100 µM (inactive)	> 100 µM (inactive)	> 100 µM (inactive)
CC(=O)OC1CCn2nnc(COC(=O)NC(C)C)c21 (centres undefined)	> 100 µM (inactive)	> 100 µM (inactive)	> 100 µM (inactive)	> 100 µM (inactive)	> 100 µM (inactive)	> 100 µM (inactive)	> 100 µM (inactive)		> 100 µM (inactive)	> 100 µM (inactive)	> 100 µM (inactive)	> 100 µM (inactive)	> 100 µM (inactive)	> 100 µM (inactive)	> 100 µM (inactive)	> 100 µM (inactive)	> 100 µM (inactive)
C[C@H](NC(=O)n1c2ccccc2c2ccccc21)C(=O)O	> 100 µM (inactive)	> 100 µM (inactive)	> 100 µM (inactive)	> 100 µM (inactive)	> 100 µM (inactive)	> 100 µM (inactive)	> 100 µM (inactive)	> 100 µM (inactive)	> 100 µM (inactive)		> 100 µM (inactive)	> 100 µM (inactive)	> 100 µM (inactive)	> 100 µM (inactive)	> 100 µM (inactive)	> 100 µM (inactive)	> 100 µM (inactive)
CCOC(=O)C(=O)Nc1ccccc1C(F)(F)F	> 100 µM (inactive)	> 100 µM (inactive)	> 100 µM (inactive)	> 100 µM (inactive)	> 100 µM (inactive)	> 100 µM (inactive)	> 100 µM (inactive)	> 100 µM (inactive)	2.39 µM (inactive)	> 100 µM (inactive)	> 100 µM (inactive)		> 100 µM (inactive)	> 100 µM (inactive)	> 100 µM (inactive)		> 100 µM (inactive)
O=C(O)[C@@H](NS(=O)(=O)c1ccc([N+](=O)[O-])cc1)c1ccccc1	> 100 µM (inactive)	> 100 µM (inactive)	> 100 µM (inactive)	> 100 µM (inactive)	> 100 µM (inactive)	> 100 µM (inactive)	> 100 µM (inactive)			> 100 µM (inactive)	> 100 µM (inactive)	> 100 µM (inactive)	> 100 µM (inactive)	> 100 µM (inactive)	> 100 µM (inactive)	73.6 µM (inactive)	> 100 µM (inactive)
